{"source": "patent US20060035212A1", "about": "“Molecules inhibiting hepatitis c virus protein synthesis and method for screening same” (Universte Joseph Fourier, priority 2002, published 2006)", "molecules": {"B1": {"name": "RRMp116: recombinant RNA recognition motif of the eIF3 p116 subunit (SEQ ID 5), C-terminal His6-Tag (protein)", "chain": "MDRPQEADGIDSVIVVDNVPQVGPDRLEKLKNVIHKIFSKFGKITNDFYPEEDGKTKGYIFLEYASPAHAVDAVKNADGYKLDKQHTFRVNLFTDFDKYMTISDEW", "modifications": "C-terminal His6 tag; p116 175..279 corresponds to a portion (RRM) of eIF3 p116 subunit"}}, "key": {"[1]": {"system": "HCV IRES-controlled Firefly luciferase synthesis in HeLa cells", "assay": "Bicistronic construct in HeLa cells: IRES-dependent (cap-independent) translation, Firefly luciferase", "format": "cell-based", "settings": "for IRES specificity of translation inhibition (in words): IRES-dependent versus cap-dependent translation, HeLa cells; for inhibition at 2000 µM: 2 mM", "method": "(§1) Bicistronic constructs consisting of a first cistron corresponding to the Renilla luciferase gene, followed by the IRES sequence, followed by a second cistron corresponding to the Firefly luciferase gene (pRluc-IRES-Fluc) are prepared in the following way. A plasmid pRL-SV40 (Promega) is linearized with Xba I and dephosphorylated. In parallel, the IRES is amplified with the Firefly luciferase gene by PCR, in the presence of complementary oligonucleotides containing the Xba I sites. The PCR products are then subcloned in plasmid pTrcHis2-TOPO (Invitrogen) in order to control the digestion. The ligation of the insert containing the IRES with the Firefly luciferase gene and the linearized vector pRL-SV40 is carried out using T4 DNA ligase (Biolabs).\n(§2) 10^7 HeLa cells suspended in serum-free DMEM are transfected with 1 to 2.5 μg of plasmid pRluc-IRES-Fluc by electroporation at […] for 30 milliseconds using a Gene Pulser (BioRad). […] The Renilla luciferase activity (cap-dependent translation) and that of the Firefly luciferase (cap-independent=viral translation) in the cell lysates is measured and compared by means of the Dual-luciferase assay (Promega) and of a Lumat LB9507 luminometer (Berthold)."}, "[2]": {"target": "T1, p116 RRM/consensus sequence of region II of the HCV IRES complex (Homo sapiens, UniProt P55884)", "T1 construct": "His6 (C); made in house; host or cells: E. coli BL21lysS", "assay": "In vitro screening assay: inhibition of binding of the RRM of p116 to the consensus sequence of region II of the IRES (nitrocellulose retention)", "parameters": "species or system HCV (IRES RNA); eIF3 p116 RRM cDNA from HeLa cells", "settings": "for inhibition of the formation of the RNA-protein complex (in words): 4 different concentrations tested", "method": "(§3) Radiolabeled RNA fragments are obtained by in vitro transcription of the abovementioned templates in the presence of [α-32P]UTP. The RNA fragments are purified in a 6% acrylamide-urea gel and precipitated. The RNA pellets are taken up in 25 mM Tris-HCl, pH 7.4. In order to allow renaturation, the RNA was incubated at 65° C. in the abovementioned buffer for 5-7 min and then slowly cooled to ambient temperature. The renatured RNAs were incubated with increasing concentrations of protein in the same 25 mM Tris-HCl buffer, pH 7.4, at ambient temperature for 5 min.\nThe mixture of proteins and of RNA is then deposited onto a nitrocellulose membrane washed beforehand with the same buffer. The radioactivity of the filter containing the RNA-protein complexes was measured using a Trilux MicroBeta radioactivity counter (PerkinElmer). […]\nThe screening assay is carried out as follows. The RRM of p116 and the consensus sequence of region II are incubated in the presence of various aminoglycosides. The RNA mixture is then deposited onto a nitrocellulose membrane under the same conditions as in example 2."}, "[3]": {"system": "cap-controlled Renilla luciferase synthesis in HeLa cells", "assay": "Bicistronic construct in HeLa cells: cap-dependent translation, Renilla luciferase", "format": "cell-based", "settings": "for cap-dependent synthesis, % of control: 2.5 μg of pDNA (FIG. 9C)", "method": "as §1, §2"}, "entire IRES of HCV": {"target": "entire IRES of HCV", "assay": "Affinity of the RRM of p116 for the whole IRES by retention on nitrocellulose", "format": "binding", "settings": "25 mM Tris-HCl pH 7.4, read-out: apparent Kd", "method": "as §3\nThe mixture of proteins and of RNA is then deposited onto a nitrocellulose membrane washed beforehand with the same buffer. The radioactivity of the filter containing the RNA-protein complexes was measured using a Trilux MicroBeta radioactivity counter (PerkinElmer)."}, "[4]": {"settings": "concentrations of 1, 2 and 5 mM"}}, "note": "“Also recorded” adds a separate entry of the source. Like-named read-outs stand apart in the source and are kept apart here.", "data": [{"molecule": "CN[C@@H]1[C@@H](O)[C@@H](O[C@@H]2[C@@H](O)[C@H](O[C@H]3O[C@H]([C@@H](C)O)[C@@H](O)[C@H](O)[C@H]3N)[C@@H](N)C[C@H]2N)OC[C@]1(C)O", "note": "[G418]", "values": [{"measurement": "IRES specificity of translation inhibition (in words)", "setting": "[1]", "result": "inhibit both the cap-dependent and IRES-dependent translation in an IRES-nonspecific manner"}]}, {"molecule": "NC[C@H]1O[C@H](O[C@H]2[C@H](O)[C@@H](O[C@H]3O[C@H](CO)[C@@H](O)[C@H](N)[C@H]3O)[C@H](N)C[C@@H]2N)[C@H](O)[C@@H](O)[C@@H]1O", "note": "[kanamycin A]", "values": [{"measurement": "inhibition of the p116 RRM/II complex", "setting": "[2]; 20 μM", "result": 0, "unit": "%"}, {"measurement": "inhibition of the p116 RRM/II complex", "setting": "[2]; 40 μM", "result": 0, "unit": "%"}, {"measurement": "inhibition of the p116 RRM/II complex", "setting": "[2]; 80 μM", "result": 0, "unit": "%"}]}, {"molecule": "NC[C@H]1O[C@H](O[C@H]2[C@H](O)[C@@H](O[C@H]3O[C@H](CO)[C@@H](O)[C@H](N)[C@H]3O)[C@H](N)C[C@@H]2N)[C@H](N)[C@@H](O)[C@@H]1O", "note": "[kanamycin B]", "values": [{"measurement": "inhibition of the p116 RRM/II complex", "setting": "[2]; 20 μM", "result": 22, "unit": "%"}]}, {"molecule": "NC[C@@H]1O[C@H](O[C@H]2[C@@H](O)[C@H](O[C@@H]3[C@@H](O)[C@H](N)C[C@H](N)[C@H]3O[C@H]3O[C@H](CO)[C@@H](O)[C@H](O)[C@H]3N)O[C@@H]2CO)[C@H](N)[C@@H](O)[C@@H]1O", "note": "[paramomycin]", "values": [{"measurement": "inhibition of cap-dependent translation", "setting": "[3]; [4]", "result": 6.3, "unit": "%"}, {"measurement": "IRES specificity of translation inhibition (in words)", "setting": "[1]", "result": "moderately IRES-specific"}, {"measurement": "inhibition of IRES-dependent translation", "setting": "[1]; [4]", "result": 37, "unit": "%"}]}, {"molecule": "[H]/N=C(/N)N[C@H]1[C@H](O)[C@@H](O)[C@H](O[C@@H]2O[C@@H](C)[C@](O)(C=O)[C@H]2O[C@@H]2O[C@@H](CO)[C@H](O)[C@@H](O)[C@@H]2NC)[C@@H](N/C(N)=N\\[H])[C@@H]1O", "note": "[streptomycin]", "values": [{"measurement": "IRES specificity of translation inhibition (in words)", "setting": "[1]", "result": "inhibits the translation of the two cistrons in an IRES-nonspecific manner"}, {"measurement": "inhibition at 20 µM", "setting": "[2]; 20 μM", "result": 25, "unit": "%"}, {"measurement": "inhibition at 40 µM", "setting": "[2]; 40 μM", "result": 36, "unit": "%"}, {"measurement": "inhibition of the formation of the RNA-protein complex (in words)", "setting": "[2]", "result": "inhibit the formation of the RNA-protein complex at all the concentrations tested"}]}, {"molecule": "NC[C@H]1O[C@H](O[C@H]2[C@H](O)[C@@H](O[C@H]3O[C@H](CO)[C@@H](O)[C@H](N)[C@H]3O)[C@H](N)C[C@@H]2N)[C@H](N)C[C@@H]1O", "note": "[tobramycin]", "values": [{"measurement": "synthesis of the Renilla luciferase (cap-controlled), % of the control", "setting": "[3]; 1 mM, 1 μg of plasmid DNA (FIG. 9B)", "result": "168 % of the control"}, {"measurement": "cap-dependent synthesis, % of control", "setting": "[3]; 2 mM", "result": "268 % of control"}, {"measurement": "cap-dependent synthesis, % of control", "setting": "[3]; 5 mM", "result": "134 % of control"}, {"measurement": "inhibition at 2000 µM", "setting": "[3]; Renilla, HeLa, 2 mM, 1 μg of plasmid DNA (FIG. 9B)", "result": 27, "unit": "%"}, {"measurement": "inhibition at 1000 µM", "setting": "[1]; Hepatitis C virus, HeLa, read-out: inhibition of the synthesis of the Firefly luciferase controlled by the IRES", "result": 90.4, "unit": "%"}, {"measurement": "inhibition at 2000 µM", "setting": "[1]; Hepatitis C virus, HeLa, 1 μg of plasmid DNA (FIG. 9B), read-out: inhibition of IRES-luciferase synthesis", "result": 83, "unit": "%"}, {"measurement": "inhibition at 2000 µM", "setting": "[1]; Hepatitis C virus, HeLa, 2.5 μg of pDNA (FIG. 9C), read-out: inhibition of the IRES-dependent translation", "result": 36.5, "unit": "%"}, {"measurement": "inhibition at 5000 µM", "setting": "[1]; Hepatitis C virus, HeLa, 5 mM, 2.5 μg of pDNA (FIG. 9C)", "result": 69, "unit": "%"}, {"measurement": "IRES specificity of translation inhibition (in words)", "setting": "[1]", "result": "the most specific inhibitor of the IRES-controlled translation"}, {"measurement": "inhibition at 20 µM", "setting": "[2]; 20 μM", "result": 43, "unit": "%"}, {"measurement": "inhibition at 40 µM", "setting": "[2]; 40 μM", "result": 54, "unit": "%"}, {"measurement": "inhibition of the formation of the RNA-protein complex (in words)", "setting": "[2]", "result": "inhibit the formation of the RNA-protein complex at all the concentrations tested; also recorded: capable of dissociating the p116/II complex in vitro, at all the concentrations tested"}]}, {"molecule": "B1", "values": [{"measurement": "Kd", "setting": "entire IRES of HCV", "result": 800, "unit": "nM"}]}]}
